target: T1, EP4 receptor (Homo sapiens, UniProt P35408); assay: hEP4 cAMP assay (BT549 breast cancer cells, HTRF cAMP, PGE2 stimulation); assay type: cell-based; details: antagonistic activity, PGE2 6 nM (EC80)
T1 construct: BT549 breast cancer cells, express high endogenous EP4 levels and very low EP2 levels; host or cells: BT549 breast cancer cells
Summary of the method: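 BT549 cells, with endogenous EP4 and very low EP2, were preincubated 45 min at room temperature with compound in HBSS/HEPES/BSA buffer with 2 mM IBMX. They were then stimulated 30 min with 6 nM PGE2 (EC80). cAMP was measured by HTRF competitive immunoassay against a calibrator; IC50 from duplicate dose-response as % of DMSO control.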

T1 sequence (P35408 whole entry): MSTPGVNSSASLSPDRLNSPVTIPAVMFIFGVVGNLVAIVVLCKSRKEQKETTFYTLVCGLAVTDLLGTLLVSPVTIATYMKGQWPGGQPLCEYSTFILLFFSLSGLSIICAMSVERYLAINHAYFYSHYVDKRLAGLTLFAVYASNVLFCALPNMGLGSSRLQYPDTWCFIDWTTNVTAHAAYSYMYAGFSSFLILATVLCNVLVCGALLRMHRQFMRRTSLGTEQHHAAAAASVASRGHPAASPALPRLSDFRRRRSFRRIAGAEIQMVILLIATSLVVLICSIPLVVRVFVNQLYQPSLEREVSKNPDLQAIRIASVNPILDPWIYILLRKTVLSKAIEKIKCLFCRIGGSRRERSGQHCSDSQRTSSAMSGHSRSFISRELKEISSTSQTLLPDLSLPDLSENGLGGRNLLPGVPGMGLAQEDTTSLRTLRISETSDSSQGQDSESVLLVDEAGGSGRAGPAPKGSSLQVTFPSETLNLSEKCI

Compared with `CSc1cc(-c2cc(NCCc3c(C)sc4c(C)cccc34)ncn2)cc(F)c1C(=O)O` [Example 47, 4-{6-[2-(2,7-Dimethyl-benzo[b]thiophen-3-yl)-ethylamino]-pyrimidin-4-yl}-2-fluoro-6-methylsulfanyl-benzoic acid], `CSc1cc(-c2cc(NCCc3c(C)sc4c(C)cccc34)ncn2)cc(Cl)c1C(=O)O` [Example 50, 2-Chloro-4-{6-[2-(2,7-dimethyl-benzo[b]thiophen-3-yl)-ethylamino]-pyrimidin-4-yl}-6-methylsulfanyl-benzoic acid] is 1.6-fold lower in IC50: 989 nM for the first, 605 nM for the second. The second is the more potent here.

`CCOc1cc(-c2cc(NCCc3c(C)sc4c(C)cc(F)cc34)ncn2)sc1CC(=O)O` [Example 52, (3-Ethoxy-5-{6-[2-(5-fluoro-2,7-dimethyl-benzo[b]thiophen-3-yl)-ethylamino]-pyrimidin-4-yl}-thiophen-2-yl)-acetic acid] and `CCOc1cc(-c2cc(NCCc3c(C)sc4c(C)cc(F)cc34)ncn2)ccc1C(=O)O` [Example 56, 2-Ethoxy-4-{6-[2-(5-fluoro-2,7-dimethyl-benzo[b]thiophen-3-yl)-ethylamino]-pyrimidin-4-yl}-benzoic acid] are within 1.5-fold of each other in IC50: 231 nM for the first, 186 nM for the second.

Compared with `CCOc1cc(-c2cc(NCCc3c(C#N)sc4c(C)cc(F)cc34)ncn2)ccc1C(=O)O` [Example 53, 4-{6-[2-(2-Cyano-5-fluoro-7-methyl-benzo[b]thiophen-3-yl)-ethylamino]-pyrimidin-4-yl}-2-ethoxy-benzoic acid], `CCOc1cc(-c2cc(NCCc3c(Br)sc4c(C)cc(F)cc34)ncn2)ccc1C(=O)O` [Example 58, 4-{6-[2-(2-Bromo-5-fluoro-7-methyl-benzo[b]thiophen-3-yl)-ethylamino]-pyrimidin-4-yl}-2-ethoxy-benzoic acid] is 6.3-fold higher in IC50: 44 nM for the first, 278 nM for the second. The first is the more potent here.

First: CCOc1cc(-c2cc(NCCc3c(C#N)sc4c(OC)cccc34)ncn2)ccc1C(=O)O [Example 54, 4-{6-[2-(2-Cyano-7-methoxy-benzo[b]thiophen-3-yl)-ethylamino]-pyrimidin-4-yl}-2-ethoxy-benzoic acid]
Second: CCOc1cc(-c2cc(NCCc3c(C)sc4c(C)cccc34)ncn2)ccc1C(=O)O [Example 60, 4-{6-[2-(2,7-Dimethyl-benzo[b]thiophen-3-yl)-ethylamino]-pyrimidin-4-yl}-2-ethoxy-benzoic acid]
The IC50 of the first is 7.3-fold lower: 47 nM for the first, 344 nM for the second.

Compared with `CCOc1cc(-c2cc(NCCc3c(C)sc4c(OC)ccc(F)c34)ncn2)ccc1C(=O)O` [Example 55, 2-Ethoxy-4-{6-[2-(4-fluoro-7-methoxy-2-methyl-benzo[b]thiophen-3-yl)-ethylamino]-pyrimidin-4-yl}-benzoic acid], `CCOc1cc(-c2cc(NCCc3c(C)sc4c(OC)ccc(Cl)c34)ncn2)ccc1C(=O)O` [Example 57, 4-{6-[2-(4-Chloro-7-methoxy-2-methyl-benzo[b]thiophen-3-yl)-ethylamino]-pyrimidin-4-yl}-2-ethoxy-benzoic acid] is 1.6-fold higher in IC50: 138 nM for the first, 220 nM for the second. The first is the more potent here.

Compared with `CCOc1cc(-c2cc(NCCc3c(Cl)sc4c(C)cc(F)cc34)ncn2)ccc1C(=O)O` [Example 59, 4-{6-[2-(2-Chloro-5-fluoro-7-methyl-benzo[b]thiophen-3-yl)-ethylamino]-pyrimidin-4-yl}-2-ethoxy-benzoic acid], `CCOc1cc(-c2cc(NCCc3c(C)sc4c(Cl)cc(F)cc34)ncn2)ccc1C(=O)O` [Example 65, 4-{6-[2-(7-Chloro-5-fluoro-2-methyl-benzo[b]thiophen-3-yl)-ethylamino]-pyrimidin-4-yl}-2-ethoxy-benzoic acid] is 2-fold higher in IC50: 285 nM for the first, 565 nM for the second. The first is the more potent here.

First: CCOc1cc(-c2cc(NCCc3c(C)sc4c(C)ccc(F)c34)ncn2)ccc1C(=O)O [Example 61, 2-Ethoxy-4-{6-[2-(4-fluoro-2,7-dimethyl-benzo[b]thiophen-3-yl)-ethylamino]-pyrimidin-4-yl}-benzoic acid]
Second: CCOc1cc(-c2cc(NCCc3c(C)sc4c(C)ccc(Cl)c34)ncn2)ccc1C(=O)O [Example 66, 4-{6-[2-(4-Chloro-2,7-dimethyl-benzo[b]thiophen-3-yl)-ethylamino]-pyrimidin-4-yl}-2-ethoxy-benzoic acid]
The IC50 of the first is 1.7-fold lower: 356 nM for the first, 607 nM for the second. The first is the more potent here.

`CCOc1cc(-c2cc(NCCc3c(C)sc4c(C)c(F)ccc34)ncn2)ccc1C(=O)O` [Example 62, 2-Ethoxy-4-{6-[2-(6-fluoro-2,7-dimethyl-benzo[b]thiophen-3-yl)-ethylamino]-pyrimidin-4-yl}-benzoic acid] and `CCOc1cc(-c2cc(NCCc3c(C)sc4c(Cl)ccc(Cl)c34)ncn2)ccc1C(=O)O` [Example 63, 4-{6-[2-(4,7-Dichloro-2-methyl-benzo[b]thiophen-3-yl)-ethylamino]-pyrimidin-4-yl}-2-ethoxy-benzoic acid] are within 1.5-fold of each other in IC50: 393 nM for the first, 445 nM for the second.

`CCOc1cc(-c2cc(NCCc3c(C)oc4c(C)cc(Cl)cc34)ncn2)ccc1C(=O)O` [Example 64, 4-{6-[2-(5-Chloro-2,7-dimethyl-benzofuran-3-yl)-ethylamino]-pyrimidin-4-yl}-2-ethoxy-benzoic acid] and `CCOc1cc(-c2cc(NCCc3c(C)oc4c(C)cc(F)cc34)ncn2)ccc1C(=O)O` [Example 69, 2-Ethoxy-4-{6-[2-(5-fluoro-2,7-dimethyl-benzofuran-3-yl)-ethylamino]-pyrimidin-4-yl}-benzoic acid] are within 1.5-fold of each other in IC50: 546 nM for the first, 760 nM for the second.

First: CCOc1cc(-c2cc(NCCc3c(C)oc4c(OC)ccc(F)c34)ncn2)ccc1C(=O)O [Example 67, 2-Ethoxy-4-{6-[2-(4-fluoro-7-methoxy-2-methyl-benzofuran-3-yl)-ethylamino]-pyrimidin-4-yl}-benzoic acid]
Second: CCOc1cc(-c2cc(NCCc3c(C)oc4c(OC)cc(Cl)cc34)ncn2)ccc1C(=O)O [Example 70, 4-{6-[2-(5-Chloro-7-methoxy-2-methyl-benzofuran-3-yl)-ethylamino]-pyrimidin-4-yl}-2-ethoxy-benzoic acid]
The IC50 of the first is 1.6-fold lower: 635 nM for the first, 985 nM for the second. The first is the more potent here.

`CCOc1cc(-c2cc(NCCc3c(C)oc4c(Cl)cccc34)ncn2)ccc1C(=O)O` [Example 68, 4-{6-[2-(7-Chloro-2-methyl-benzofuran-3-yl)-ethylamino]-pyrimidin-4-yl}-2-ethoxy-benzoic acid] and `CCOc1cc(-c2cc(NCCc3c(C)oc4c(Cl)cc(Cl)cc34)ncn2)ccc1C(=O)O` [Example 71, 4-{6-[2-(5,7-Dichloro-2-methyl-benzofuran-3-yl)-ethylamino]-pyrimidin-4-yl}-2-ethoxy-benzoic acid] are within 1.5-fold of each other in IC50: 714 nM for the first, 1030 nM for the second.

`CCOc1cc(-c2cc(NCCc3c(C)sc4ccccc34)ncn2)ccc1C(=O)O` [Example 72, 2-Ethoxy-4-{6-[2-(2-methyl-benzo[b]thiophen-3-yl)-ethylamino]-pyrimidin-4-yl}-benzoic acid] and `CCOc1cc(-c2cc(NCCc3c(Cl)sc4ccccc34)ncn2)ccc1C(=O)O` [Example 75, 4-{6-[2-(2-chloro-benzo[b]thiophen-3-yl)-ethylamino]-pyrimidin-4-yl}-2-ethoxy-benzoic acid] are within 1.5-fold of each other in IC50: 1590 nM for the first, 1160 nM for the second.

First: Cc1sc2c(C)cccc2c1CCNc1cc(-c2ccc3c(C(=O)O)coc3c2)ncn1 [Example 76, 6-{6-[2-(2,7-Dimethyl-benzo[b]thiophen-3-yl)-ethylamino]-pyrimidin-4-yl}-benzofuran-3-carboxylic acid]
Second: Cc1sc2c(C)cccc2c1CCNc1cc(-c2ccc3cc(C(=O)O)oc3c2)ncn1 [Example 77, 6-{6-[2-(2,7-Dimethyl-benzo[b]thiophen-3-yl)-ethylamino]-pyrimidin-4-yl}-benzofuran-2-carboxylic acid]
The IC50 of the first is 4-fold higher: 523 nM for the first, 130 nM for the second. The second is the more potent here.
